Data published in patent US20240002379A1, “ASYMMETRIC CONJUGATE COMPOUNDS” (Pheon Therapeutics Ltd., priority 2016, published 2024).
“Also recorded” adds a separate entry of the source. Where two headings read alike, the source gives them in different places.

What was measured:
[1] = tested on: LIM1215 cell line (gastric); test: MTT cytotoxicity assay, LIM1215; format: cell-based; settings: read-out: Cytotoxicity LIM1215 (72 hours)
Protocol: (§1) Tumor cell lines were maintained in RPMI1640 medium supplemented with 10% heat-inactivated fetal bovine serum, 2 mM L-glutamine and 1 mM sodium pyruvate. 1800 cells per well were seeded in a volume of 180 μl in a 96-well flat bottom polystyrene plate. The cells were allowed to adhere overnight at 37° C. in a CO2 incubator. Ligands were initially formulated in DMSO, and stocks stored at −80° C. They were then further formulated at lox concentration in RPMI1640 medium. 20 ul of diluted samples were added into each treatment well. On each plate, blank wells with no cells, and untreated wells containing cells, were included. Plates were then cultured at 37° C. in a CO2 incubator for 72 hrs. Cytotoxicity was evaluated using a tetrazolium salt-based assay, the MTT assay. After 72 hours, the supernatant was removed from each well and 200 μl of a sterile filtered 500 μg/ml MTT solution in water added to each well. The plates were then incubated at 37° C. in a CO2 incubator for 4 hrs. The supernatant was then removed and the formazan crystals formed solubilized by adding 150 μl of DMSO to each well. The plate was then read on a plate reader at 540 nm, and percentage cell survival calculated as follows: ((mean absorbance treated wells at concentration x−mean absorbance blank wells)[…](mean absorbance untreated wells at concentration x−mean absorbance blank wells))×100. Data were plotted as concentration in nM vs. % cell survival in Microsoft Excel, and IC50 values (concentration where cell survival is reduced by a half) were determined from the graph.

SW620 cell line = test: MTT cytotoxicity assay, SW620; format: cell-based; settings: MTT assay, 72 hour incubation
Protocol: as §1

SW48 cell line = test: MTT cytotoxicity assay, SW48; format: cell-based; settings: MTT assay, 72 hour incubation
Protocol: as §1

[2] = tested on: linear double-stranded HexARev DNA fragment; test: DNA cleavage assay, HexARev fragment; format: biochemical; settings: ligand concentration 10 μM and 100 nM (FIG. 16)
Protocol: The ability of a further series of compounds 13, 42, 59, 99 and the PBD dimer Talirine to cross-link DNA was determined using an assay involving a linear double-stranded HexARev fragment (FIG. 15).
The ability of 13 and of a series of compounds to cleave double-stranded DNA was investigated using a modification of the previously established DNA footprinting assay (34). Following an overnight incubation of the ligand-DNA complexes, the mixture was mixed with strand separation buffer containing 10 mM EDTA, 10 mM NaOH, 0.1% bromophenol blue, 80% formamide and incubated at 100° C. for 3 min. The mixture was then immediately cooled on ice and run on an 8% denaturing gel. […] Using the GA marker, these additional bands were identified as cleavage products produced by 13 at certain A sites of the DNA fragment.
The preparation of the TyrT DNA fragment (FIG. 8) and HexARev DNA fragment (FIG. 15) have been previously described (34). Briefly, the sequence which had been cloned into the BamHI site of pUC18 was obtained by cutting with HindIII and EcoRI. Radiolabelled DNA fragments were prepared by filling in the 3′-end of the HindIII site with [α-^32P]dATP using Klenow DNA polymerase (exo-).
The radiolabelled DNA fragment was separated from the remainder of the plasmid DNA on a 6% non-denaturing polyacrylamide gel. The gel (20 cm long, 0.3 mm thick) was run at 400 V in 1×TBE running buffer for about 1-2 h, until the bromophenol blue had run most of the way down the gel. The glass plates were separated and the position of the labelled DNA fragment was established by short (1 min) exposure to an X-ray film. The relevant band was then cut from the gel and the radiolabelled DNA eluted by adding 300 μL 10 mM Tris-HCl, pH 7.5 containing 0.1 mM EDTA and gently agitating overnight at room temperature. The eluted DNA was finally precipitated with ethanol and re-suspended in a suitable volume of 10 mM Tris-HCl, pH 7.5 containing 0.1 mM EDTA buffer so as to give at least 10 counts per second/μL on a hand-held Geiger counter. With fresh plasmid and α-^32P-dATP this process typically generated about 150 μL of radiolabelled fragment DNA. The absolute concentration of the DNA is not important, and it is typically lower than 10 nM.
Compounds such as 13 were synthesised as described above and the PBD dimer Talirine was obtained from Aurum Pharmatech LLC. Stock solution was prepared by dissolving the ligands in DMSO to give a concentration of 10 mM. From this stock solution, working solutions of the desired concentration were prepared by diluting with 10 mM Tris-HCl, pH 7.5 containing 10 mM NaCl.
Radiolabelled DNA (1.5 μL) was mixed with 1.5 μL ligand solution of various concentrations (10 μM-10 nM) and incubated overnight at 37° C.
Labelled DNA (1.5 μL) was mixed with 20 μL sterile water and 5 μL of denaturing loading solution (80% formamide containing 10 mM EDTA, 10 mM NaOH, 0.01% bromophenol blue). The sample was then incubated at 100° C. for 20 min with the micro-centrifuge tube cap open to allow evaporation.
Loading solution (4.5 μL) was added to samples from Section 2.1. The digestion products were boiled for 3 min at 100° C. and quickly cooled on ice prior to electrophoresis. Separation was performed on an 8% denaturing polyacrylamide gel (40 cm long, 0.3 mm thick) at 1500V for about 2 h until the dye reached the bottom of the gel. […]

[3] = tested on: SW620 cell line (gastric); test: MTT cytotoxicity assay, SW620; format: cell-based; settings: Homo sapiens, read-out: Cytotoxicity SW620 (72 hours)
Protocol: as §1

SW48 cell line (gastric) = test: MTT cytotoxicity assay, SW48; format: cell-based; settings: Homo sapiens, read-out: Cytotoxicity SW48 (72 hrs)
Protocol: as §1

PC3 (prostate) cell line = test: MTT cytotoxicity assay, PC3; format: cell-based; settings: read-out: Cytotoxicity PC3 (nM, 72 hour)
Protocol: as §1

[4] = tested on: FaDu (head and neck cancer) cell line; test: MTT cytotoxicity assay, FaDu; format: cell-based; settings: Homo sapiens
Protocol: as §1

[5] = tested on: three fluorescently labelled DNA sequences shown in FIG. 17; test: FRET DNA melting, the three DNA sequences shown in FIG. 17 together; format: binding; settings: different concentrations, all three sequences, vs control DNA
Excerpt: Further FRET DNA melting studies were undertaken on a number of molecules using three fluorescently labelled sequences. The sequences (FIG. 17) were designed to provide additional evidence that the series can form inter- and intrastrand cross-links. Inosines were inserted in place of traditional DNA bases in some cases to limit the number of binding sites available for the compounds to interact with. The short duplexes used in this FRET study are relatively unstable in the duplex form with a melting temperature below 30° C. so that, in the absence of ligand, a large part of the melting occurs below the starting temperature of the experiment. […] Increasing concentrations of 13 cause a greater amount of the melting transition to appear at the higher temperature (i.e. a greater number of the DNA molecules are cross-linked). A greater effect for 5′-AIIAGAITTTI′-3′ can be observed at lower concentrations of 13.
Oligonucleotides were obtained from ATDbio (Southampton, UK) in lyophilised form. They were labelled with a fluorophore molecule (F=fluorescein) at the 5′-end and a quencher molecule (Q=dabcyl) at the 3′-end of the complementary strand. Each oligonucleotide was dissolved in distilled H2O to form stock solutions of 100 PM. Working solutions of 5 μM were prepared by diluting the stock solution with distilled H2O.
The following buffers were used: 250 mM phosphate buffer pH 7.4 (consisting of sodium dihydrogen phosphate and sodium phosphate diluted in distilled H2O) and 5 M sodium chloride buffer. A11 buffers and distilled H2O were filtered through a […] filter prior to use.
For the FRET experiments a stock solutions were prepared by dissolving compound (such as compound 13) in DMSO to give a concentration of 10 mM. From this stock solution, working solutions of the desired concentration were prepared by diluting the stock solution with distilled H2O.
The reaction mixture was comprised of 4 μL of 250 mM phosphate buffer (final concentration of 50 mM), 4 μL flourophor and 4 μL quencher molecule of the appropriate oligonucleotide for a final concentration of 0.2 PM, 4 μL 5 M sodium chloride (final concentration of 1 M NaCl), and 4 μL of distilled H2O. This mixture was heated in an Eppendorf tube at 90° C. for 1 min and slowly cooled down to room temperature. This process was carried out to anneal the single strands to double-stranded DNA. Following this, 4 μL of the ligand was added in the desired concentration and the mixture incubated overnight either at room temperature or 4° C. A control sample of DNA only was prepared by mixing 4 μL 250 mM phosphate buffer (final concentration of 50 mM) with 4 μL fluorophore-labelled and 4 μL quencher-labelled oligonucleotides (of the appropriate sequence) to give a final concentration of 0.2 PM, 4 μL 5 M sodium chloride (final concentration of 1 M NaCl) and 4 μL distilled H2O. This mixture was analysed without prior annealing.
Fluorescence melting profiles were measured using a Roche LightCycler using a total reaction volume of 20 μL. Initially, the samples were denatured by heating to 95° C. at a rate of 1° C. min^−1. The samples were then maintained at 95° C. for 5 min before annealing by cooling to 25° C. at 1° C. min^−1. The samples were then held at 25° C. for a further 5 min and finally melted by heating to 95° C. at 1° C. min^−1. Annealing steps and melting steps were all recorded and changes in fluorescence were measured at 520 nm.
Tm values were obtained from the first derivates of the melting profiles using the Roche LightCycler software.

Structure (SMILES): COc1cc2c(cc1OCc1cccc(CC(=O)N3C[C@@H](CCl)c4c3cc(OC(=O)N3CCN(C)CC3)c3ccccc43)c1)NC(=O)[C@@H]1CCCCN1C2=O [Compound 140]
- IC50 ([1]; LIM1215, 72 h): 18.1 nM
- Cytotoxicity SW620 (72 hours) (SW620 cell line): Not active
- Cytotoxicity SW48 (72 hrs) (SW48 cell line): Not active

Structure (SMILES): COc1cc2c(cc1OCCCCCC(=O)N1C[C@@H](CCl)c3c1cc(O)c1ccccc31)N=C[C@@H]1CCCCN1C2=O [Compound 99, (S)-3-((6-((S)-1-(Chloromethyl)-5-hydroxy-1,2-dihydro-3H-benzo[e]indol-3-Y1)-6-oxohexyl)oxyl)-2-methoxy-7,8,9,10-tetrahydrobenzo-[e]pyrido[1,2-a][1,4]diazepin-12(6aH)-one]
- IC50 ([1]; LIM1215, MTT assay, 72 hour incubation): 0.039 nM
- cleavage of HexARev DNA fragment [2]: cleave DNA
- IC50 ([3]; SW-620, MTT assay, 72 hour incubation): 0.045 nM
- IC50 (SW48 cell line (gastric); SW48, MTT assay, 72 hour incubation): 0.035 nM

Structure (SMILES): O=C(O)c1cc(OCc2ccccc2)c2ccccc2c1 [Compound 77, 4-(Benzyloxy)-2-naphthoic acid]
- cleavage of HexARev DNA fragment [2]: distinct cleavage patterns

Structure (SMILES): COc1cc2c(cc1OCCCCCC(=O)N1C[C@@H](CCl)c3c1cc(O)c1ccccc31)N=C[C@@H]1CCCCN1C2=O [Compound 24, (S)-3-((6-((S)-1-(Chloromethyl)-5-hydroxy-1,2-dihydro-3H-benzo[e]indol-3-yl)-6-oxohexyl)oxy)-2-methoxy-7,8,9,10-tetrahydrobenzo-[e]pyrido[1,2-a][1,4]diazepin-12(6aH)-one]
- IC50 (PC3 (prostate) cell line; MTT assay, 72 hour incubation): 0.12 nM
- IC50 ([4]; MTT assay, 72 hour incubation, read-out: Cytotoxicity FaDu (nM, 72 hour)): 1.83 nM

Structure (SMILES): COc1cc2c(cc1OCCCCCC(=O)N1C[C@@H](CCl)c3c1cc(OC(=O)N1CCN(C)CC1)c1ccccc31)N=C[C@@H]1CCCCN1C2=O [Compound 57, (S)-1-(Chloromethyl)-3-(6-(((S)-2-methoxy-12-oxo-6a,7,8,9,10,12-hexahydrobenzo[e]pyrido[1,2-a][1,4]diazepin-3-yl)oxy)hexanoyl)-2,3-dihydro-1H-benzo[e]indol-5-yl 4-methylpiperazine-1-carboxylate]
- IC50 ([1]; LIM1215, 72 h): 0.41 nM
- IC50 ([3]; SW-620, 72 h): 1.1 nM
- IC50 (SW48 cell line (gastric); SW48, 72 h): 0.042 nM
- IC50 (PC3 (prostate) cell line; 72 h): 3 nM
- IC50 ([4]; 72 h, read-out: Cytotoxicity FaDu (nM, 72 hour)): > 10 nM

Structure (SMILES): COc1cc2c(cc1OCc1cccc(CC(=O)N3C[C@@H](CCl)c4c3cc(OC(=O)N3CCN(C)CC3)c3ccccc43)c1)N=C[C@@H]1CCCCN1C2=O [Compound 59, (S)-1-(Chloromethyl)-3-(2-(3-((((S)-2-methoxy-12-oxo-6a,7,8,9,10,12-hexahydrobenzo[e]pyrido[1,2-a][1,4]diazepin-3-yl)oxy)-methyl)phenyl)acetyl)-2,3-dihydro-1H-benzo[e]indol-5-yl 4-methyl-piperazine-1-carboxylate]
- cleavage of HexARev DNA fragment [2]: limited cleavage
- effect on melting temperature / DNA stabilisation [5]: does not impact on the stabilisation temperature of the parent DNA; also recorded: does not increase in proportion to the concentration
- IC50 (PC3 (prostate) cell line; 72 h): 900 nM
- IC50 ([4]; 72 h, read-out: IC50 value in FaDu (prodrug form)): 4500 nM
